The assay concerns nude mice, HT29 intrarenal xenograft, tumor weight T/C. Put plainly: NCI In Vivo Anticancer Drug Screen. Data for tumor model HT29;CX-1 Human Adenocarcinoma (MER+) (intrarenal inoculation) in NU/NU Swiss (nude) mice. The settings on record: endpoint: mean tumor weight change, higher = larger tumour. A digest of the protocol: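 Mice with transplanted tumors are dosed with compound while controls get vehicle only. Survival or tumor burden is then assessed per group, and the treated value is expressed relative to control.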

[1] abbreviates: dose: 300.0 mg/kg/injection, schedule: Q04DX004 (sc), vehicle: Klucel (hydroxypropylcellulose) (HPC).
Where [2] appears, read: dose: 600.0 mg/kg/injection, schedule: Q04DX004 (sc), vehicle: Klucel (hydroxypropylcellulose) (HPC).
Setting [3] is: dose: 1200.0 mg/kg/injection, schedule: Q04DX004 (sc), vehicle: Klucel (hydroxypropylcellulose) (HPC).
Where [4] appears, read: dose: 75.0 mg/kg/injection, schedule: Q04DX004 (sc), vehicle: saline with Tween-80.
Where [5] appears, read: dose: 150.0 mg/kg/injection, schedule: Q04DX004 (sc), vehicle: saline with Tween-80.
[6] abbreviates: dose: 37.5 mg/kg/injection, schedule: Q04DX004 (sc), vehicle: Klucel (hydroxypropylcellulose) (HPC).
Where [7] appears, read: dose: 75.0 mg/kg/injection, schedule: Q04DX004 (sc), vehicle: Klucel (hydroxypropylcellulose) (HPC).
Setting [8] is: dose: 300.0 mg/kg/injection, schedule: Q04DX004 (sc), vehicle: saline with Tween-80.
Where [9] appears, read: dose: 600.0 mg/kg/injection, schedule: Q04DX004 (sc), vehicle: saline with Tween-80.

“And” between values parts separate entries of the source, which are not always exact repeats. Equal values may be shown once. Inconclusive results are not listed.

Consider `c1ccc([C@H]2CN3CCSC3=N2)cc1`, for which the T/C is, setting by setting: (dose: 15.0 mg/kg/injection, schedule: Q04DX004 (sc), vehicle: saline) 152 % of control; (dose: 30.0 mg/kg/injection, schedule: Q04DX004 (sc), vehicle: saline) 114 % of control.
With `Cc1[nH]c(=O)[nH]c(=O)c1N(CCF)CCCl`, the T/C by setting is: (dose: 10.0 mg/kg/injection, schedule: Q01DX010 (sc), vehicle: Klucel (hydroxypropylcellulose) (HPC)) 117 % of control; (dose: 20.0 mg/kg/injection, schedule: Q01DX010 (sc), vehicle: Klucel (hydroxypropylcellulose) (HPC)) 95 % of control; (dose: 40.0 mg/kg/injection, schedule: Q01DX010 (sc), vehicle: Klucel (hydroxypropylcellulose) (HPC)) 48 % of control.
Consider `O=C1NC(=O)NC(C(=O)O)N1`, for which the T/C reads like this: (dose: 50.0 mg/kg/injection, schedule: Q04DX004 (sc), vehicle: Klucel (hydroxypropylcellulose) (HPC)) 101 % of control; (dose: 100.0 mg/kg/injection, schedule: Q04DX004 (sc), vehicle: Klucel (hydroxypropylcellulose) (HPC)) 67 % of control; (dose: 200.0 mg/kg/injection, schedule: Q04DX004 (sc), vehicle: Klucel (hydroxypropylcellulose) (HPC)) 114 % of control; under setting [1], 108 % of control; (dose: 400.0 mg/kg/injection, schedule: Q04DX004 (sc), vehicle: Klucel (hydroxypropylcellulose) (HPC)) 91 % of control; under setting [2], 95 % of control. Also, the T/C under setting [3] was 58 % of control.
Turning to `COC1/C=C/O[C@@]2(C)Oc3c(C)c(O)c4c(O)c(cc(O)c4c3C2=O)NC(=O)/C(C)=C\C=C\[C@H](C)C(O)[C@@H](C)[C@@H](O)[C@@H](C)[C@H](OC(C)=O)[C@@H]1C` (stereo partly drawn), the T/C (dose: 150.0 mg/kg/injection, schedule: Q04DX004 (sc), vehicle: suspension in saline) was 72 % of control and the T/C (dose: 300.0 mg/kg/injection, schedule: Q04DX004 (sc), vehicle: suspension in saline) is 69 % of control.
Turning to `OC1CCCC2CCCNC12` (stereo not drawn), the T/C reads like this: (dose: 37.5 mg/kg/injection, schedule: Q04DX004 (sc), vehicle: saline with Tween-80) 85 % of control; under setting [4], 77 % of control; under setting [5], 83 % of control.
Regarding `Cc1cc(N/N=C/c2ccccn2)nc2ccccc12`, the T/C was 101 % of control under setting [6]; 107 % of control under setting [7]; 123 % of control (dose: 150.0 mg/kg/injection, schedule: Q04DX004 (sc), vehicle: Klucel (hydroxypropylcellulose) (HPC)); 90 % of control under setting [1].
As for `COc1cc(C(=O)c2cc3c(cc2C)OCO3)cc(OC)c1OC`, the T/C is 83 % of control under setting [1], 64 % of control under setting [2] and 82 % of control under setting [3].
In the case of `Nc1nc(F)nc2c1ncn2C1OC(COP(=O)(O)O)C(O)C1O` (stereo not drawn), the T/C (dose: 50.0 mg/kg/injection, schedule: Q01DX010 (sc), vehicle: saline) was 91 % of control; the T/C (dose: 100.0 mg/kg/injection, schedule: Q01DX010 (sc), vehicle: saline) is 84 % of control; the T/C (dose: 200.0 mg/kg/injection, schedule: Q01DX010 (sc), vehicle: saline) was 22 % of control.
With `COc1ccc(C(N)=O)cc1N=NN(C)C`, the T/C is 100 % of control (dose: 18.75 mg/kg/injection, schedule: Q04DX004 (sc), vehicle: Klucel (hydroxypropylcellulose) (HPC)); 31 % of control and 55 % of control under setting [6]; 45 % of control and 52 % of control and 70 % of control under setting [7].
In the case of `O=C1NC(O)c2ccccc2O1` (stereo not drawn), the T/C by setting is: (dose: 100.0 mg/kg/injection, schedule: Q04DX004 (sc), vehicle: suspension in saline) 68 % of control; (dose: 200.0 mg/kg/injection, schedule: Q04DX004 (sc), vehicle: suspension in saline) 115 % of control; (dose: 400.0 mg/kg/injection, schedule: Q04DX004 (sc), vehicle: suspension in saline) 50 % of control; (dose: 800.0 mg/kg/injection, schedule: Q04DX004 (sc), vehicle: suspension in saline) 55 % of control.
On to `CO[C@@]12[C@H](COC(N)=O)C3=C(C(=O)C(C)=C(N)C3=O)N1C[C@@H]1N[C@@H]12`, for which the T/C (dose: 0.63 mg/kg/injection, schedule: Q04DX004 (sc), vehicle: saline) was 71 % of control; the T/C (dose: 1.5 mg/kg/injection, schedule: Q04DX004 (sc), vehicle: saline) is 10 % of control; the T/C (dose: 2.0 mg/kg/injection, schedule: Q04DX004 (ip), vehicle: saline) was 29 % of control; the T/C (dose: 3.0 mg/kg/injection, schedule: Q04DX003 (sc), vehicle: saline) was 13 % of control; the T/C (dose: 3.0 mg/kg/injection, schedule: Q04DX004 (ip), vehicle: saline) is 8 % of control; the T/C (dose: 3.0 mg/kg/injection, schedule: Q04DX004 (sc), vehicle: saline) was -59 % of control. The T/C reads like this: (dose: 4.5 mg/kg/injection, schedule: Q04DX004 (ip), vehicle: saline) -82 % of control; (dose: 6.0 mg/kg/injection, schedule: Q04DX003 (sc), vehicle: saline) -37 % of control.
For the compound `CC(=Nc1ccccc1)C1=C(O)C(Cc2ccccc2)NC1=O` (stereo not drawn), the T/C is 66 % of control under setting [4], 105 % of control under setting [5], 43 % of control under setting [8] and 80 % of control under setting [9].
For `Cc1c(N)nc([C@H](CC(N)=O)NC[C@H](N)C(N)=O)nc1C(=O)N[C@H](C(=O)N[C@H](C)[C@@H](O)[C@H](C)C(=O)N[C@H](C(=O)NCCc1nc(-c2nc(C(=O)NCCC[S+](C)C)cs2)cs1)[C@@H](C)O)C(OC1OC(CO)C(O)C(O)C1OC1OC(CO)C(O)C(OC(N)=O)C1O)c1cnc[nH]1` (stereo partly drawn), the T/C reads like this: (dose: 4.0 mg/kg/injection, schedule: Q01DX010 (sc), vehicle: saline) 59 % of control; (dose: 6.25 mg/kg/injection, schedule: Q04DX004 (sc), vehicle: saline) 116 % of control; (dose: 8.0 mg/kg/injection, schedule: Q01DX010 (sc), vehicle: saline) 59 % of control; (dose: 8.0 mg/kg/injection, schedule: Q04DX004 (sc), vehicle: saline) 111 % of control; (dose: 16.0 mg/kg/injection, schedule: Q04DX004 (sc), vehicle: saline) 114 % of control; (dose: 25.0 mg/kg/injection, schedule: Q04DX004 (sc), vehicle: saline) 160 % of control. Also, the T/C reads like this: (dose: 32.0 mg/kg/injection, schedule: Q04DX004 (sc), vehicle: saline) 43 % of control; (dose: 50.0 mg/kg/injection, schedule: Q04DX004 (sc), vehicle: saline) 113 % of control; (dose: 64.0 mg/kg/injection, schedule: Q01DX010 (sc), vehicle: saline) 42 % of control.
In the case of `CO[C@@H]1[C@H](O)CC[C@]2(CO2)[C@H]1[C@@]1(C)O[C@@H]1CC=C(C)C`, the T/C under setting [4] was 108 % of control, the T/C under setting [5] was 179 % of control, the T/C under setting [8] was 108 % of control and the T/C under setting [9] was 110 % of control.
With `Cc1cc(C)c(-c2cc(O)c(C)cc2O)c(C)c1`, the T/C is 68 % of control under setting [3] and 71 % of control (dose: 2400.0 mg/kg/injection, schedule: Q04DX004 (sc), vehicle: Klucel (hydroxypropylcellulose) (HPC)).
As to `COc1cccc2c1C(=O)c1c(O)c3c(c(O)c1C2=O)C[C@@](O)(C(C)=O)C[C@@H]3OC1CC(N)C(O)C(C)O1` (stereo partly drawn), the T/C (dose: 1.0 mg/kg/injection, schedule: Q01DX010 (sc), vehicle: saline) is 159 % of control.
On to `CCN(CC)CCOCCO`, for which the T/C runs as follows: (dose: 150.0 mg/kg/injection, schedule: Q04DX004 (sc), vehicle: saline) 113 % of control; (dose: 300.0 mg/kg/injection, schedule: Q04DX004 (sc), vehicle: saline) 89 % of control.
Take `Cc1cc(NCCN(C(C)C)C(C)C)nc(/N=C(\N)Nc2ccc(Cl)c(C(F)(F)F)c2)n1`: the T/C is 62 % of control (dose: 20.0 mg/kg/injection, schedule: Q04DX004 (sc), vehicle: Klucel (hydroxypropylcellulose) (HPC)); 51 % of control (dose: 40.0 mg/kg/injection, schedule: Q04DX004 (sc), vehicle: Klucel (hydroxypropylcellulose) (HPC)); 78 % of control (dose: 80.0 mg/kg/injection, schedule: Q04DX004 (sc), vehicle: Klucel (hydroxypropylcellulose) (HPC)); 62 % of control (dose: 160.0 mg/kg/injection, schedule: Q04DX004 (sc), vehicle: Klucel (hydroxypropylcellulose) (HPC)).

The values are drawn from PubChem BioAssay AID206 (DTP/NCI, 2004).
